One assay concerns the target T1, Tryptase-6 (PRSS33) (Homo sapiens, UniProt Q8NF86).
T1 construct: native active enzyme (~25 kDa) captured by anti-tryptase-6 antibody from patient synovial fluid
The experiment in a line: fluorogenic cleavage, antibody pull-down from synovial fluid. The format is biochemical. The conditions noted are these: 37 °C; ex 380 nm, em 460 nm; enzyme captured by plate-immobilized antibody.

For assay [1], the target named is T2, PAR2 (proteinase-activated receptor 2) (Homo sapiens, UniProt P55085).
T2 construct: gene F2RL1; endogenous full-length receptor in HEK-293 cells; no response to 2fLI in CRISPR PAR2-knockout HEK-293
T2 sequence (P55085 26-397): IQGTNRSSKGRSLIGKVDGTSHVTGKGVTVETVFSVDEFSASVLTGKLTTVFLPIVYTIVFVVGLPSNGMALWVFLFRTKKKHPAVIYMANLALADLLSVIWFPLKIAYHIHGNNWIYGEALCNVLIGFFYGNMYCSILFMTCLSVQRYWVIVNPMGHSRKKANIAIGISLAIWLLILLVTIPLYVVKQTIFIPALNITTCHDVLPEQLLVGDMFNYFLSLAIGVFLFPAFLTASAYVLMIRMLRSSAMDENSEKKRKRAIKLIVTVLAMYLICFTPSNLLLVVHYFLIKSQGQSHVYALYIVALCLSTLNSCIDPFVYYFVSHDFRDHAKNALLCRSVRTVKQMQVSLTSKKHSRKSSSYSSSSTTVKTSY
Kind of assay: calcium signaling (Fluo-4 AM), HEK-293 cells. The conditions noted are these: antagonist; pre-treatment, then 0.15 µM 2fLI as agonist; 37 °C. It is filed as cell-based.

Assay [2] concerns the target proteinase-activated receptor 2 (human (endogenous in HEK-293, THP-1 and primary monocytes/macrophages)) (UniProt P55085).

From publication PMC7982406, “Proteinase-Mediated Macrophage Signaling in Psoriatic Arthritis” (Frontiers in Immunology, 2021) come the findings set out here.

The IC50 is the concentration that inhibits the measured activity by half.

Where a SMILES comes first, the peptide text is derived from it. [ ]: non-standard residue; d: D form. The star is where a group is joined. AMC = Cc1cc(=O)oc2cc(N*)ccc12

T1 sequence (Q8NF86 37-280): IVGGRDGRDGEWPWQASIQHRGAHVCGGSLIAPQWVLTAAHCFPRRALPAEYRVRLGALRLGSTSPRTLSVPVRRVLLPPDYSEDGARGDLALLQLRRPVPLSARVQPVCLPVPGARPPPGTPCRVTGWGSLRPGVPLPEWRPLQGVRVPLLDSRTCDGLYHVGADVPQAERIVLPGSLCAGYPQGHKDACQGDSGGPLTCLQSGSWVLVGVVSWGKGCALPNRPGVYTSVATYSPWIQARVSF

Turning to `Cc1cc(=O)oc2cc(NC(=O)[C@H](CCCCN)NC(=O)[C@H](CC(C)C)NC(=O)[C@H](N)C(C)C)ccc12` [VLK-AMC] (H-[dV]-Leu-Lys-{AMC}), the “fluorogenic cleavage, antibody pull-down from synovial fluid” value at Tryptase-6 (PRSS33) was “Tryptase-6 activity increased when both substrates were added”.
Turning to `CC(C)(C)c1cc(-c2ccc(F)cc2)nn2cc(C(=O)N3CCNC(=O)C3(C)C)nc12` [I-191], the IC50 in assay [1] is 2.1 nM.
2-furoyl-LIGRLO-NH2 (peptide): in assay [2], the calcium signaling (Fluo-4 AM) in HEK-293 cells, concentration-effect curve of 2fLI, EC50 came to 140 nM.
